Experimental findings from patent US20210330738A1, “ANTIMICROBIAL, BACTERIOPHAGE-DERIVED POLYPEPTIDES AND THEIR USE AGAINST GRAM-NEGATIVE BACTERIA” (CONTRAFECT CORPORATION, priority 2018, published 2021) are described below.

For test [1], the system named is P. aeruginosa strain PAO1. Nature of the test: MIC in Mueller-Hinton broth supplemented with 50% human plasma or human serum. In kind it is cell-based, Pseudomonas aeruginosa. As to conditions: for Minimal inhibitory concentration, Human Plasma: Mueller-Hinton broth supplemented with 50% human plasma; for Minimal inhibitory concentration, Human Serum: Mueller-Hinton broth supplemented with 50% human serum.

Test [2] concerns mature biofilms formed by P. aeruginosa strain ATCC 17647. Kind of test: Minimal Biofilm Eradicating Concentration (MBEC), Calgary Biofilm Device, crystal violet. The test is classed as cell-based, Pseudomonas aeruginosa. The settings on record: P. aeruginosa ATCC 17647 mature biofilm, >95% biofilm biomass removed.

On to LL-37, for which, in test [1], the “Minimal inhibitory concentration, Human Plasma” value was over 64 µg/mL and the “Minimal inhibitory concentration, Human Serum” value was over 64 µg/mL.
Consider PGLa, for which, in test [1], the “Minimal inhibitory concentration, Human Plasma” value was over 64 µg/mL and the “Minimal inhibitory concentration, Human Serum” value was over 64 µg/mL.
Protegrin 1: in test [1], the “Minimal inhibitory concentration, Human Plasma” value was 1 µg/mL and the “Minimal inhibitory concentration, Human Serum” value worked out at 4 µg/mL.
In the case of T4 lysozyme [Peptide T4LYZ], the MBEC in test [2] and in test [2] (listed as T4 lysozyme) was over 64 µg/mL in each case.
